# Values quoted from earlier work in patent US20260256768A1, “DRY POWDER COMPOSITIONS OF BEDAQUILINE AND SALTS AND METHODS OF USE THEREOF” (Insmed Incorporated, priority 2022, published 2026).
# Assays:
# lung tumor = settings: animal model
# [1] = system: non-small cell lung cancer cell lines; settings: two non-small cell lung cancer cell lines
# [2] = system: MCF7 breast cancer cells-derived cancer stem-like cells
# cancer metastasis = settings: in vivo
compound,measurement,setting,value
"COc1nc2ccc(Br)cc2cc1[C@@H](c1ccccc1)[C@@](O)(CCN(C)C)c1cccc2ccccc12 [bedaquiline, (1R,2S)-1-(6-bromo-2-methoxyquinolin-3-yl)-4-(dimethylamino)-2-naphthalen-1-yl-1-phenylbutan-2-ol]",effect on lung tumor growth and angiogenesis,lung tumor,inhibit lung tumor growth and angiogenesis
same,cytotoxicity,[1],cytotoxic properties
same,effect on propagation and expansion of cancer stem-like cells,[2],block the propagation and expansion
same,effect on cancer metastasis,cancer metastasis,inhibit cancer metastasis
